Laboratory results published in paper PMC10144301, “Antiseizure Properties of Histamine H3 Receptor Antagonists Belonging 3,4-Dihydroquinolin-2(1H)-Ones” (Molecules, 2023).
“And” between values parts separate entries of the source, which are not always exact repeats. Equal entries are not always repeated.

Key:
[1] = test system: PTZ-induced seizure model; assay: Pentylenetetrazole (PTZ)-induced seizure model; format: in vivo; settings: mice, 10 mg/kg, i.p.; PTZ 85 mg/kg s.c.
Procedure: One of the two test models is the MES seizure model, another is the PTZ-induced seizure model. […] In addition, the administration of this dosage can minimize the impact of other possible side effects such as central inhibition and cardiac toxicity. […] In addition, the tested dose of VPA was 300 mg/kg. The PTZ model was usually used to screen the antiepileptic candidates for the absence of seizures. In this work, compounds 2a-2i, 3a-3c, and 4a-4b were also evaluated for their antiseizure action in the PTZ model in mice, while using VPA as the positive drug. […] The failure of synthesized compounds in the PTZ model is expected because our previously reported H3R inhibitors were also ineffective in the PTZ model. […] A considerable increase in histamine levels was found in the brain after MES-induced seizures, whereas a tendency toward a decrease in histamine levels was observed after PTZ-kindled convulsions. […] The neurological safety of the compounds 2h, 4a, and 4b was evaluated by the rotarod test. In the MES test, the definition of protection was the reduction or vanishing of the THLE in mice. […] The antiseizure activities of the compounds in the PTZ test were evaluated by comparing the convulsion scores in mice between taking the compounds or not. […] In addition, the THLE was recorded and compared with that of the mice treated by compound 4a alone. […]

[2] = Rotarod test for neurotoxicity; format: in vivo; settings: rotarod test, mice, i.p., three animals per group
Procedure: A rotarod test was carried out to estimate the neurological safety of compounds 2h, 4a, and 4b.
(§1) The neurological safety of the compounds 2h, 4a, and 4b was evaluated by the rotarod test. In the MES test, the definition of protection was the reduction or vanishing of the THLE in mice. In the PTZ test, the seizures were induced through the subcutaneous administration of PTZ (85 mg/kg). The antiseizure activities of the compounds in the PTZ test were evaluated by comparing the convulsion scores in mice between taking the compounds or not. VPA and PIT were used as positive drugs. To explore the anticonvulsive mechanism, compound 4a (10 mg/kg) was co-injected with RAMH (10 mg/kg). In addition, the THLE was recorded and compared with that of the mice treated by compound 4a alone. The detailed experimental operations in the MES, PTZ, and rotarod tests refer to our previous paper. All the animal experiments were carried out on 4-week-old KunMing male mice weighing from 20 to 25 g. The mice were housed collectively in polycarbonate cages in groups of 30, where they were maintained on a 12 h light/dark cycle in a temperature controlled (25 ± 2 °C) laboratory with free access to food and water. In the MES and PTZ models, seven animals were used in each group. In the rotarod test, three animals were used in each group. Each animal was used only once. All the experiments referring to animals were applied according to the Guide for the Care and Use of Laboratory Animals and were approved by the Medical Ethics Committee of Jinggangshan University, approval number: 220811002.

[3] = test system: maximal electroshock seizure (MES) model; set-up: method as in PMID 33325568; settings: 10 mg/kg, previous work; cited from earlier work
[4] = test system: electrical kindling model of epilepsy; settings: cited from earlier work
photosensitive epilepsy = settings: dose of 30 mg or 60 mg; cited from earlier work
[5] = test system: maximal electroshock seizure (MES) model; assay: Maximal electroshock seizure (MES) model; format: in vivo; settings: mice
Procedure: as §1, with “One of the two test models is the MES seizure model, another is the PTZ-induced seizure model. […] In addition, the administration of this dosage can minimize the impact of other possible side effects such as central inhibition and cardiac toxicity. […] In addition, the tested dose of VPA was 300 mg/kg. It could be seen that all animals in the control group experienced hindlimb stiffness after the electrical stimulation in the MES model. In the treated group, the definition of protection was the reduction or vanishing of the tonic hind limb extension (THLE) in mice. […] The neurological” for “The neurological”

[6] = test system: PTZ-induced seizure model; set-up: method as in PMID 27853355; settings: Sadek's study; cited from earlier work

Clc1ccc(CCCOCCCN2CCCCC2)cc1 [PIT, Pitolisant, reference compound]
Protection against seizures induced by PTZ (seizure score) [1]: did not exhibit protection | Neurotoxicity ([2]; 10 mg/kg): 0/3 | Neurotoxicity ([2]; 30 mg/kg): 0/3 | Neurotoxicity ([2]; 100 mg/kg, 100 mg/kg): no neurotoxicity and 0/3 | Antiseizure activity [3]: showed an antiseizure activity | Antiseizure activity in electrical kindling model [4]: powerful antiseizure activity | Effect on photosensitive epilepsy and EEG (photosensitive epilepsy): can inhibit photosensitive epilepsy | Duration of tonic hind limb extension (THLE), protection in MES model ([5]; 10 mg/kg, i.p., compared to control group): decreased the duration of THLE significantly | THLE induced by MES ([5]; 30 mg/kg): fully abolished the THLE | Dose dependence of protection in MES model ([5]; doses of 3, 10 and 30 mg/kg): dose-dependent antiseizure activity | Effect in PTZ model [6]: failure
